Literature values in patent publication US20080188510A1, “NOVEL METHODS USING ZONISAMIDE” (Eisai R & D Management Co., Ltd., priority 2005, published 2008).

Tested on: dopaminergic neurodegeneration induced by MPTP
Conditions: MPTP (1-methyl-4-phenyl-1,2,3,6-tetrahydropyridine) induced; cited from earlier work

In the case of `NS(=O)(=O)Cc1noc2ccccc12` [zonisamide, 3-sulfamoylmethyl-1,2-benzisoxazole], the “suppressant action to dopaminergic neurodegeneration induced by MPTP” value is listed as “extremely strong suppressant action”.
